Experimental data taken from PubChem BioAssay AID1117319 (Southern Research Institute, 2015).
Records with an inconclusive call do not appear.

target: Virion infectivity factor (Human immunodeficiency virus type 1 group M subtype B (isolate BH10)) + Virion infectivity factor (Human immunodeficiency virus type 1 group M subtype B (isolate BRU/LAI)) + Virion infectivity factor (Human immunodeficiency virus type 1 group M subtype B (isolate PCV12)) + Virion infectivity factor (Human immunodeficiency virus type 1 group M subtype B (isolate HXB2)) + DNA dC->dU-editing enzyme APOBEC-3G (Homo sapiens) (UniProt P69720+P69721+P69722+P69723+Q9HC16); test: inhibitors of Vif binding to APOBEC3G peptide, primary screen, biochemical, TR-FRET, GST-Vif 1-94, biotin-A3G peptide, dose response retest (AID 1117319);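 also: Vif residues 1-94 fused to GST binding biotinylated APOBEC3G peptide 110-148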

Point of comparison: `O=[N+]([O-])c1cc2oc3c(c2c(C=NCc2ccncc2)c1O)CCCC3`, IC50 4.52 µM. Against it:
- O=S(=O)(O)c1cccc2c(N=Nc3ccc(O)c4ncccc34)cccc12 — 3-fold higher, 13.6 µM
- O=C1NC(=S)N(c2ccccc2)C(=O)/C1=C/c1ccco1 — 2.1-fold higher, 9.42 µM
- COc1cccc(CNCCc2c[nH]c3ccccc23)c1OCc1ccccc1 — 12-fold higher, 56 µM
- CCN(CC)c1ccc(N=Cc2c(O)n(-c3ccc(Cl)cc3)c(=O)[nH]c2=O)cc1 — 8.3-fold higher, 37.6 µM
- O=C1/C(=C/C=C/c2ccco2)SC(=S)N1NS(=O)(=O)c1ccccc1 — 1.6-fold lower, 2.9 µM
- COc1ccc2ccccc2c1C1CC(=O)N2CN(Cc3ccco3)CSC2=C1C#N (stereo not drawn) — 12-fold higher, 53.6 µM
- c1ccc(CSc2nnc(-c3ccco3)c(-c3ccco3)n2)cc1 — 1.5-fold higher, 6.93 µM
- CC(C)(CS(=O)(=O)[O-])NC(=O)CC[N+](C)(C)CCO — 3-fold lower, 1.5 µM
- Cn1c2ccccc2c2ccc3c(c21)C(=O)C=CC3=O — 5.3-fold higher, 23.8 µM
- O=C(Cc1ccccc1)NC(Nc1ccccc1)C(Cl)(Cl)Cl (stereo not drawn) — 6.2-fold higher, 27.9 µM
- CC1Cc2ccccc2N1Cc1nc2cc(C(F)(F)F)ccc2c(=O)[nH]1 (stereo not drawn) — 16-fold higher, 74.5 µM
- CCOCCNC(=O)c1ccccc1C(=O)NCCOCC — 20-fold higher, 89.2 µM
- O=C(O)c1ccc(-n2cccc2/C=N\NC(=O)c2cc3cc(Br)ccc3o2)cc1 — within 1.5-fold, 6.47 µM
- Cc1cc(SCC2=NNC(=O)C2)c(Cl)cc1Cl — 14-fold higher, 63.2 µM
- CC1=C(C(=O)Nc2ccccc2F)C(c2ccsc2)C2=C(CC(c3ccccc3)CC2=O)N1 (stereo not drawn) — 4.4-fold lower, 1.02 µM
- O=C1c2cccnc2C(Nc2ccccc2)N1Cc1ccco1 (stereo not drawn) — 5.1-fold higher, 22.9 µM
- COc1ccc(C(=O)N/N=C/C23CC[C@@H](O)CC2(O)CC[C@@H]2[C@@H]3CCC3(C)C(C4=CC(=O)OC4)CCC23O)cc1 (stereo partly drawn) — 19-fold higher, 86.3 µM
- CCOC(=O)C1CCCN(C(=O)c2cc(-c3ccco3)nc3ccccc23)C1 (stereo not drawn) — 1.7-fold lower, 2.64 µM
- O=C(C1CCCO1)N1CCC2(CC1)OCCO2 (stereo not drawn) — 3.3-fold lower, 1.39 µM
- CC(C)CN(C(=O)CN1CCN(c2ccc(O)cc2)CC1)c1c(N)n(CC(C)C)c(=O)[nH]c1=O — 2.7-fold higher, 12.3 µM
- O=S(=O)(O)c1cc(O)c2cc(Nc3ccccc3)ccc2c1 — 2-fold lower, 2.3 µM
- CN1CCC(N(C)C(=O)COc2ccccc2-c2ccccc2)CC1 — 2.4-fold higher, 10.8 µM
- COc1ccccc1C1CC(=O)Nc2c1c(=O)n(C)c(=O)n2C (stereo not drawn) — 16-fold higher, 70.4 µM
- O=C(CCS(=O)(=O)c1ccc(Br)cc1)NC1CCCC1 — 4.5-fold higher, 20.5 µM
- COC(=O)/C(=N/Nc1ccccc1C)N1CCCc2ccccc21 — 2.4-fold lower, 1.9 µM
- Cc1cc(-c2csc(NC(=O)c3ccc(C#N)cc3)n2)c(C)n1Cc1ccco1 — within 1.5-fold, 3.35 µM
- NC(=O)c1ccc(N2CCN(c3ccc(O)cc3)CC2)c([N+](=O)[O-])c1 — 1.6-fold higher, 7.08 µM
- Oc1cccc(/C=N/NC(=S)NCCN2CCOCC2)c1O — 2.7-fold higher, 12.4 µM
- COc1ccc2cc(C3C(C#N)=C(N)OC(C)=C3C(C)=O)c(Cl)nc2c1 (stereo not drawn) — 4.3-fold higher, 19.4 µM
- COc1ccc(Cl)cc1NC(=O)CCS(=O)(=O)c1ccc(Br)cc1 — 1.8-fold higher, 8.09 µM
- Fc1cccc(-c2cc3nc4c(c(NCc5ccco5)n3n2)CCCC4)c1 — 11-fold higher, 50.8 µM
- COC(=O)C1=C(O)/C(=C\c2ccc(CNC(=O)C(=O)Nc3ccc(C)cc3)o2)N=C1C — 5.3-fold higher, 24.1 µM
- C=C(C)C(=O)Nc1cccc(C2=NOC3(C2)C[C@@H](C(N)=O)N(C(=O)c2cc([N+](=O)[O-])cc([N+](=O)[O-])c2)C3)c1 (stereo partly drawn) — within 1.5-fold, 4.69 µM
- Cc1c(O)cc2c(c1O)C(=O)CC(c1ccc(O)cc1)O2 (stereo not drawn) — 1.7-fold lower, 2.68 µM
- COc1cc(CN2CCNC(=O)C2CC(=O)N(Cc2nccn2C)C(C)C)cc(OC)c1 (stereo not drawn) — 6.3-fold higher, 28.3 µM
- CCC(C)(C)n1nnnc1C(c1cc2cc(C)ccc2[nH]c1=O)N1CCCc2ccccc21 (stereo not drawn) — 21-fold higher, 93.5 µM
- CNCc1ccccc1Sc1cc(O)ccc1O — within 1.5-fold, 3.46 µM
- Cc1c(Cl)cccc1NS(=O)(=O)c1ccc2c(c1)C1C=CCC1C(c1ccc(C(=O)O)cc1)N2 (stereo not drawn) — 1.8-fold lower, 2.54 µM
- COc1cc(CNCCc2ccc(F)cc2)ccc1OCc1ccc(Cl)nc1 — within 1.5-fold, 3.18 µM
- Cc1cc(C(=O)CSc2nnc(-c3ccco3)o2)c(C)n1Cc1ccco1 — 2.3-fold lower, 1.97 µM
- Cc1cccc(C)c1NC(=O)CSc1nnc(-c2ccco2)c(-c2ccco2)n1 — 2.2-fold lower, 2.05 µM
- S=c1[nH]nc(COc2ccc3c(c2)OCO3)n1-c1ccccc1 — 11-fold higher, 48.3 µM
- CC1=NN(c2cccc(C(=O)O)c2)C(=O)/C1=C\C=C\c1ccco1 — 1.6-fold lower, 2.89 µM
- O=C(O)c1ccc(S(=O)(=O)c2ccc([N+](=O)[O-])cc2[N+](=O)[O-])cc1 — 12-fold higher, 53.3 µM
- O=c1c(O)cccc2cc(O)c(O)c(O)c12 — 4.4-fold lower, 1.03 µM
- Cc1noc(/C=C/c2ccco2)c1S(=O)(=O)N1CCC(C(=O)NCc2ccco2)CC1 — 2.5-fold lower, 1.84 µM
- NC(=O)c1c(NC(=O)c2ccc(S(=O)(=O)N3CCOCC3)cc2)sc2c1CCCCC2 — 22-fold higher, 98.3 µM
- COC/C=C/C1=CC2=CC(=O)C(C)(OC(=O)c3ccco3)C(=O)C2=CO1 (stereo not drawn) — 3-fold lower, 1.52 µM
- Cc1cccc(N(C(=O)Cn2nnc3ccccc32)C(C(=O)NCc2ccco2)c2ccncc2)c1C (stereo not drawn) — within 1.5-fold, 4.66 µM
- CCCc1cc(=O)oc2cc(C)c(CN3CCCC3)c(O)c12 — within 1.5-fold, 3.46 µM
- O=C(NCc1ccccc1)c1ccc2nc(-c3ccco3)c(-c3ccco3)nc2c1 — 9.4-fold lower, 0.48 µM
- CCn1c(C)nc2cc(C(=O)N/N=C/c3ccc(O)c(O)c3O)ccc21 — 8.7-fold lower, 0.52 µM
- CC(/C=N/n1c(-c2ccncc2)n[nH]c1=S)=C\c1ccco1 — within 1.5-fold, 5.1 µM
- CCCCn1c(N)c(N(CCOC)C(=O)c2cc(-c3ccco3)nc3ccccc23)c(=O)[nH]c1=O — 2.4-fold higher, 10.9 µM
- N#CC1=C(N)C2=C(N3CCCCC3)CCCC2C1(C#N)C#N (stereo not drawn) — 2.7-fold lower, 1.7 µM
- Cc1ccc(/C=C/C2=Cc3c(sc(NC(=O)CSc4n[nH]c(N)n4)c3C#N)C(C)(C)C2)o1 — 5.6-fold lower, 0.8 µM
- CC(=O)Nc1ccc(NC(=O)CSCc2cnn(-c3ccccc3)c2-n2cccc2)cc1 — 5.7-fold higher, 25.9 µM
- CC(=O)c1ccc2c(c1)C1C=CCC1C(C(=O)O)N2 (stereo not drawn) — 7.5-fold lower, 0.6 µM
- Oc1ccc(N=Cc2ccc(O)c(O)c2)cc1 — 4.6-fold lower, 0.99 µM
- Cc1sc2ncnc(SCc3ccco3)c2c1C — 6.2-fold higher, 28.2 µM
- COc1nc(N(c2ccccc2)c2ccccc2)nc(-n2ccnc2)n1 — 5.8-fold higher, 26.3 µM
- CNc1cccccc1=S — 8.9-fold lower, 0.51 µM
- O=c1c2cc(N3CCOCC3)ccc2[nH]c(=S)n1Cc1ccco1 — 1.6-fold higher, 7.24 µM
- O=C(CN1C(=O)NC2(CCCCCCC2)C1=O)NCc1ccc2c(c1)OCO2 — 22-fold higher, 99.2 µM
- Cc1cc(C)c([N+](=O)[O-])cc1-c1ccc(/C=N/NC(=O)c2nonc2N)o1 — 12-fold higher, 52.7 µM
- N=C(N)c1ccc(N=Nc2c(O)ccc3c2[nH]c2ccccc23)cc1 — within 1.5-fold, 3.87 µM
- COCOC1CCC2C3CCC4=CC(=O)CCC4=C3C=CC12C (stereo not drawn) — 5.1-fold higher, 23.2 µM
- N#Cc1ccccc1CN1C(=O)S/C(=C/c2cccn2-c2cccc(C(=O)O)c2)C1=O — 4.1-fold higher, 18.5 µM
- O=C(COC(=O)c1cc(-c2ccco2)nc2ccccc12)NCc1ccc2c(c1)OCO2 — 2.8-fold higher, 12.5 µM
- COc1cccc(C2C(C#N)=C(N)OC3=C2C(=O)CC(c2ccco2)C3)c1OCc1ccc(F)cc1 (stereo not drawn) — 1.7-fold higher, 7.82 µM
- COc1cc(C(=O)NCc2nnc(SCC(=O)Nc3nc4ccc(C)cc4s3)o2)cc(OC)c1OC — 10-fold higher, 45.3 µM
- CCc1ccc(NC(=O)CCNS(=O)(=O)c2cccc3nonc23)cc1 — 12-fold higher, 53 µM
- N#CC(C#N)=Cc1cccn1-c1ccc(C(=O)O)cc1 — 2.3-fold higher, 10.3 µM
- S=c1nc(-c2ccc(Br)cc2)oc2c1CCCC2 — 14-fold higher, 61.7 µM
- O=C(O)c1ccc(-n2nc(C(F)(F)F)c3c2-c2ccoc2CC3)cc1 — 13-fold higher, 58.6 µM
- CC(C)(C)C1C/C(=C/c2ccco2)C(=O)/C(=C/c2ccco2)C1 (stereo not drawn) — 1.7-fold lower, 2.65 µM
- Cc1cc(C(=O)O)ccc1-n1c(C)ccc1C — within 1.5-fold, 5.16 µM
- COc1ccc(NC(=O)CC2Nc3cccc4cccc(c34)NC2=O)cc1 (stereo not drawn) — 3.7-fold lower, 1.21 µM
- CCN(CC(=O)Nc1c(C(=O)OC)[nH]c2ccccc12)c1ccc2c(c1)OCO2 — within 1.5-fold, 5.84 µM
- c1cncc(-c2nnc3sc(-c4ccco4)nn23)c1 — 6.3-fold higher, 28.3 µM
- O=c1cc(O)n(-c2ccc(F)cc2)c(=S)[nH]1 — 11-fold higher, 51.5 µM
- O=[N+]([O-])c1cc(-c2ccc(/C=N/c3nc4ccccn4c3-c3ccco3)o2)ccc1Cl — 2.2-fold higher, 10 µM
- CN=c1scc(-c2cccs2)n1/N=C/c1ccc(O)c(O)c1O — 2.3-fold lower, 1.95 µM
- COc1cccc(N2C(=O)NC(=O)/C(=C/c3ccc([N+](=O)[O-])s3)C2=O)c1 — 1.6-fold higher, 7.18 µM
- CCN(CC)c1ccc(NC(=O)CCS(=O)(=O)c2ccc(Br)cc2)c(C)c1 — within 1.5-fold, 5.51 µM
- CCOc1ccc(CNc2ccc(N3CCCC3)cc2)cc1 — within 1.5-fold, 6.59 µM
- CC[n+]1ccc(C)c2cc(P(=O)(c3ccccc3)c3ccccc3)ccc21 — within 1.5-fold, 3.93 µM
- O=[N+]([O-])c1ccc(N2CCN(c3ccc(Cl)nn3)CC2)c(Cl)c1 — 22-fold higher, 99.1 µM
- CCOc1ccc(C(=O)NC(=S)Nc2ccc(N3CCC(C)CC3)cc2)cc1[N+](=O)[O-] — 12-fold higher, 55.4 µM
- CN(C)c1nc(N)nc(CSc2nc3c(c(=O)n(C)c(=O)n3C)n2Cc2ccccc2F)n1 — 13-fold higher, 60.9 µM
- CCOc1ccc(-n2c(=O)c3c(C)c(C)sc3n(CC(=O)NCc3ccco3)c2=O)cc1 — 17-fold higher, 74.9 µM
- COc1ccccc1NCCC(=O)OCC(=O)NCc1ccco1 — 3.1-fold higher, 13.9 µM
- Cc1cc([N+](=O)[O-])cc2c1NC(c1ccccn1)C1CC=CC21 (stereo not drawn) — within 1.5-fold, 3.03 µM
- CC1=Nc2nc(N3CCCCC3)c(C#N)c3c4c(nc(c23)N1)N(c1ccc(C(C)C)cc1)C(=O)C4 — within 1.5-fold, 5.27 µM
- CCOC(=O)C1CCN(C(c2cccs2)c2sc3nc(C)nn3c2O)CC1 (stereo not drawn) — 12-fold higher, 55.7 µM
- CC(=C/c1ccco1)/C=N/NC(=O)Cc1cccn1C — 2.4-fold lower, 1.91 µM
- C=CCn1c(COc2ccc(F)cc2)nnc1SCC(=O)NC(=O)NCc1ccco1 — 9-fold higher, 40.7 µM
- CC(=O)Nc1ccc(N/C=C/C(=O)C(C)(C)C)cc1 — 9-fold higher, 40.8 µM
- CC1=C/C(=N\OS(=O)(=O)c2ccccc2)C=CC1=O — 3.7-fold higher, 16.7 µM
- CCOc1ccccc1C(O)C1=CC(=O)c2ccccc2C1=O (stereo not drawn) — 1.7-fold higher, 7.61 µM
- Cc1c2ccccc2nc2c(F)c(N(C)C)c(F)c(F)c12 — 3.5-fold higher, 15.7 µM
- Oc1ccc(N=Cc2sc3ccccc3c2Cl)cc1 — within 1.5-fold, 3.11 µM
- CCOC(=O)/C=C1\SCC(=O)N1CC(=O)NC(C)c1ccc(F)cc1 (stereo not drawn) — 6.4-fold higher, 28.8 µM
- CCOc1cccc(=O)c2c(C)n(Cc3ccco3)c(C)c12 — 10-fold lower, 0.45 µM
- CN=c1scc(C)n1/N=C/c1ccc(O)c(O)c1O — lower, < 1.84 µM
- Cc1cc(C)cc(N(CC(=O)NCc2cccnc2)S(C)(=O)=O)c1 — 8.1-fold higher, 36.7 µM
- Cc1cc(C(=O)NNC(=O)/C=C/c2ccco2)c(C)o1 — 2.9-fold higher, 13.3 µM
